These results are taken from patent US4346099A, “Carboxy-imidazole derivatives, compositions and use” (Ono Pharmaceutical Co., Ltd., priority 1981, dated 1982).

Where a name gives a salt, the structure may show the parent alone.

This assay addresses T1, thromboxane synthetase from rabbit platelet microsomes (Oryctolagus cuniculus, UniProt G1TAZ9).
T1 construct: thromboxane synthetase from rabbit platelet microsomes; from tissue; host or cells: rabbit platelet microsomes
T1 sequence (G1TAZ9 1-530): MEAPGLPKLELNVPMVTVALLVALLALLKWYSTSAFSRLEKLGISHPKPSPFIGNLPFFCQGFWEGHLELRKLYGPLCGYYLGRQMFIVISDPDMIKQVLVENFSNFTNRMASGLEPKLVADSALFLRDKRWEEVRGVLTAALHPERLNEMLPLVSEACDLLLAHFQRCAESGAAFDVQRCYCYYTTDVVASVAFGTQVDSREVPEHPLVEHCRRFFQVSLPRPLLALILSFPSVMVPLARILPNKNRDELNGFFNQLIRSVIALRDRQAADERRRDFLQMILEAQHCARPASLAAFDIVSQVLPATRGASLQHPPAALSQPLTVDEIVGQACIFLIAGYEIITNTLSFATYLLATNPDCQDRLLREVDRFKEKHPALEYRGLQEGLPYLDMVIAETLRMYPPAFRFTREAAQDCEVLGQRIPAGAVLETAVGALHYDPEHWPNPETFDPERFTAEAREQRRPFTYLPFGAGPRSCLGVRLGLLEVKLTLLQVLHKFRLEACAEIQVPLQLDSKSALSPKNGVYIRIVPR
In words: inhibition of thromboxane synthetase from rabbit platelet microsomes (standard laboratory tests). In kind it is biochemical.

As to `O=C(O)C1(CCCCCCn2ccnc2)CCCCC1` [1-(7-carboxy-7,7-pentanoheptyl)imidazole hydrochloride], the IC50 was found to be 46 nM.

The molecule `O=C(O)C(CCCCCCn1ccnc1)c1ccccc1` (centres unmarked) [1-(7-carboxy-7-phenylheptyl)imidazole hydrochloride] came in with an IC50 of 38 nM.

As usually defined, the IC50 is the midpoint of a concentration-inhibition curve. Read a high IC50 as a need for much substance.
